In this assay the target is T1, cellular PARG (Homo sapiens, UniProt Q86W56).
T1 construct: endogenous in cells; host or cells: HeLa
Put plainly: Nuclear PAR accumulation assay (immunofluorescence high-content imaging, MMS-treated HeLa cells). Format: cell-based. To be noted: 1 hour compound then MMS 50 μg/mL for an additional hour. The method in brief: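 HeLa cells pretreated with compound for 1 h at 37° C, then given 50 μg/mL MMS for another hour. After methanol fixation, PAR was immunostained with DAPI nuclear counterstain; per-nucleus intensity and percent PAR-positive cells were imaged at 20× (≥1,000 cells/well). IC50 from four-parameter logistic fit.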

The structures appear in SMILES notation.

T1 sequence (Q86W56 whole entry): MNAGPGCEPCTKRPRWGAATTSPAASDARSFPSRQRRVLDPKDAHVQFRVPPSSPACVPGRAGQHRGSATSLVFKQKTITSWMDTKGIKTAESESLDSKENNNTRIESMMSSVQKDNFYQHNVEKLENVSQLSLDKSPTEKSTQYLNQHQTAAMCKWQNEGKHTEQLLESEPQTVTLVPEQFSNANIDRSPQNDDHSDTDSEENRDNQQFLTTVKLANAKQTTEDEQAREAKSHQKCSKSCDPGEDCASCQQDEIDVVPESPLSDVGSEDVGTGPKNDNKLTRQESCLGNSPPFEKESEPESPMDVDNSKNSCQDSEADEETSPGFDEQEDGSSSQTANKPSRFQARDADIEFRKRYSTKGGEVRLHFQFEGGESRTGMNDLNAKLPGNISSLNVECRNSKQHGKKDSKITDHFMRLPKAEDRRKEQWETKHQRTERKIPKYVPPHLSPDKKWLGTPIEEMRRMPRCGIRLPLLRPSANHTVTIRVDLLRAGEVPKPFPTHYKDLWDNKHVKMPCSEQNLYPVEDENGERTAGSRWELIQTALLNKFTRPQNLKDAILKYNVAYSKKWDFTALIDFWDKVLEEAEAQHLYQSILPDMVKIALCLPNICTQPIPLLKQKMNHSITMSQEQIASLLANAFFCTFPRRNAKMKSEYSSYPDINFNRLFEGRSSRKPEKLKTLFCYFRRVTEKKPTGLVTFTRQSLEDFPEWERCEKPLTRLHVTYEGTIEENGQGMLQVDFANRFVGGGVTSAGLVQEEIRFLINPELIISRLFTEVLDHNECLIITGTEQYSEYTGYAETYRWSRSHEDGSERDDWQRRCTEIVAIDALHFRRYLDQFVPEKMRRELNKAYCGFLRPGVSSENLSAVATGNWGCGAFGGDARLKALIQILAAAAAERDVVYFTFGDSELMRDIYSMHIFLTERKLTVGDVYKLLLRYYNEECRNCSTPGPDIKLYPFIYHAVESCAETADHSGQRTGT

As a reminder, the IC50 is the concentration that inhibits the measured activity by half. Low readings indicate greater potency, high ones weaker potency. As to `CN1CCC[C@@H]1C#C[C@@H]1CN=C2N(Cc3cnn(C)c3)C(=O)c3cc(S(=O)(=O)NC4(C)CC4)ccc3N21` [Example 256, (R)-4-((1-methyl-1H-pyrazol-4-yl)methyl)-N-(1-methylcyclopropyl)-1-(((R)-1-methylpyrrolidin-2-yl)ethynyl)-5-oxo-1,2,4,5-tetrahydroimidazo[1,2-a]quinazoline-7-sulfonamide], the IC50 is under 0.1 µM. As for `CCN1C(=O)c2cc(S(=O)(=O)NC3(C)CC3)ccc2N2C1=NC[C@H]2C#Cc1nn(C)nc1C` [Example 257, (R)-1-((2,5-dimethyl-2H-1,2,3-triazol-4-yl)ethynyl)-4-ethyl-N-(1-methylcyclopropyl)-5-oxo-1,2,4,5-tetrahydroimidazo[1,2-a]quinazoline-7-sulfonamide], the figure is under 0.1 µM; as for `[2H]C([2H])(c1cnn(C)c1)N1C(=O)c2cc(S(=O)(=O)NC3(C)CC3)ccc2N2C1=NC[C@H]2C#Cc1cnc(OC)nc1` [Example 259, (R)-1-((2-methoxypyrimidin-5-yl)ethynyl)-4-((1-methyl-1H-pyrazol-4-yl)methyl-d2)-N-(1-methylcyclopropyl)-5-oxo-1,2,4,5-tetrahydroimidazo[1,2-a]quinazoline-7-sulfonamide], under 0.1 µM. As for `[2H]C([2H])(c1cnn(C)c1)N1C(=O)c2cc(S(=O)(=O)NC3(C)CC3)ccc2N2C1=NC[C@H]2C#Cc1cccnn1` [Example 260, (R)-4-((1-methyl-1H-pyrazol-4-yl)methyl-d2)-N-(1-methylcyclopropyl)-5-oxo-1-(pyridazin-3-ylethynyl)-1,2,4,5-tetrahydroimidazo[1,2-a]quinazoline-7-sulfonamide], the figure is under 0.1 µM; as for `[2H]C([2H])(c1cnn(C)c1)N1C(=O)c2cc(S(=O)(=O)NC3(C)CC3)ccc2N2C1=NC[C@H]2C#Cc1cnc(C2CC2)nc1` [Example 261, (R)-1-((2-cyclopropylpyrimidin-5-yl)ethynyl)-4-((1-methyl-1H-pyrazol-4-yl)methyl-d2)-N-(1-methylcyclopropyl)-5-oxo-1,2,4,5-tetrahydroimidazo[1,2-a]quinazoline-7-sulfonamide], under 0.1 µM; as for `[2H]C([2H])(c1cnn(C)c1)N1C(=O)c2cc(S(=O)(=O)NC3(C)CC3)ccc2N2C1=NC[C@H]2C#Cc1cncnc1OC` [Example 262, (R)-1-((4-methoxypyrimidin-5-yl)ethynyl)-4-((1-methyl-1H-pyrazol-4-yl)methyl-d2)-N-(1-methylcyclopropyl)-5-oxo-1,2,4,5-tetrahydroimidazo[1,2-a]quinazoline-7-sulfonamide], under 0.1 µM.

Compound `[2H]C([2H])(c1cnn(C)c1)N1C(=O)c2cc(S(=O)(=O)NC3(C)CC3)ccc2N2C1=NC[C@H]2C#Cc1cncnc1NC` [Example 263, (R)-4-((1-methyl-1H-pyrazol-4-yl)methyl-d2)-1-((4-(methylamino)pyrimidin-5-yl)ethynyl)-N-(1-methylcyclopropyl)-5-oxo-1,2,4,5-tetrahydroimidazo[1,2-a]quinazoline-7-sulfonamide] registered an IC50 of under 0.1 µM. Under `CCN1C(=O)c2cc(S(=O)(=O)NC3(C)CC3)c(F)cc2N2C1=N[C@H]1CCC[C@H]12` [Example 264, (7aS,10aR)-6-ethyl-2-fluoro-N-(1-methylcyclopropyl)-5-oxo-6,7a,8,9,10,10a-hexahydro-5H-cyclopenta[4,5]imidazo[1,2-a]quinazoline-3-sulfonamide] stands under 0.1 µM; under `CCN1C(=O)c2cc(S(=O)(=O)NC3(C)CC3)ccc2N2C1=NC[C@H]2C#Cc1cn(C)nc1C` [Example 265, (R)-1-((1,3-dimethyl-1H-pyrazol-4-yl)ethynyl)-4-ethyl-N-(1-methylcyclopropyl)-5-oxo-1,2,4,5-tetrahydroimidazo[1,2-a]quinazoline-7-sulfonamide], under 0.1 µM. As for `[2H]C([2H])(c1cnn(C)c1)N1C(=O)c2cc(S(=O)(=O)NC3(C)CC3)ccc2N2C1=NC[C@H]2C#Cc1nn(C)nc1C` [Example 266, (R)-1-((2,5-dimethyl-2H-1,2,3-triazol-4-yl)ethynyl)-4-((1-methyl-1H-pyrazol-4-yl)methyl-d2)-N-(1-methylcyclopropyl)-5-oxo-1,2,4,5-tetrahydroimidazo[1,2-a]quinazoline-7-sulfonamide], the figure is under 0.1 µM. Under `C[C@@H]1CN=C2N(Cc3ccnc(/C=C/CN(C)C)c3)C(=O)c3cc(S(=O)(=O)NC4(C)CC4)ccc3N21` [Example 267, (R,E)-4-((2-(3-(dimethylamino)prop-1-en-1-yl)pyridin-4-yl)methyl)-1-methyl-N-(1-methylcyclopropyl)-5-oxo-1,2,4,5-tetrahydroimidazo[1,2-a]quinazoline-7-sulfonamide] stands 1 to 10 µM; under `[2H]C([2H])(c1cnn(C)c1)N1C(=O)c2cc(S(=O)(=O)NC3(C)CC3)ccc2N2C1=NC[C@H]2C#Cc1cncnc1N` [Example 268, (R)-1-((4-aminopyrimidin-5-yl)ethynyl)-4-((1-methyl-1H-pyrazol-4-yl)methyl-d2)-N-(1-methylcyclopropyl)-5-oxo-1,2,4,5-tetrahydroimidazo[1,2-a]quinazoline-7-sulfonamide], under 0.1 µM; under `[2H]C([2H])(c1cnn(C)c1)N1C(=O)c2cc(S(=O)(=O)NC3(C)CC3)ccc2N2C1=NC[C@H]2C#Cc1cncc(OC)c1` [Example 269, (R)-1-((5-methoxypyridin-3-yl)ethynyl)-4-((1-methyl-1H-pyrazol-4-yl)methyl-d2)-N-(1-methylcyclopropyl)-5-oxo-1,2,4,5-tetrahydroimidazo[1,2-a]quinazoline-7-sulfonamide], under 0.1 µM. `CN(C)C1([C@@H]2CN=C3N(Cc4cnn(C)c4)C(=O)c4cc(S(=O)(=O)NC5(C)CC5)ccc4N32)CC1` [Example 270, (S)-1-(1-(dimethylamino)cyclopropyl)-4-((1-methyl-1H-pyrazol-4-yl)methyl)-N-(1-methylcyclopropyl)-5-oxo-1,2,4,5-tetrahydroimidazo[1,2-a]quinazoline-7-sulfonamide] showed an IC50 of under 0.1 µM.

Take `COc1ccc(CN2C(=O)c3cc(S(=O)(=O)NC4(C)CC4)ccc3N3C2=N[C@H]2CCC[C@H]23)cn1` [Example 273, (7aS,10aR)-6-((6-methoxypyridin-3-yl)methyl)-N-(1-methylcyclopropyl)-5-oxo-6,7a,8,9,10,10a-hexahydro-5H-cyclopenta[4,5]imidazo[1,2-a]quinazoline-3-sulfonamide]: the IC50 was in the range of 0.1 to 1 µM. Under `[2H]C([2H])(c1cnn(C)c1)N1C(=O)c2cc(S(=O)(=O)NC3(C)CC3)c(F)cc2N2CC(C)(C)N=C21` [Example 274, 8-fluoro-2,2-dimethyl-4-((1-methyl-1H-pyrazol-4-yl)methyl-d2)-N-(1-methylcyclopropyl)-5-oxo-1,2,4,5-tetrahydroimidazo[1,2-a]quinazoline-7-sulfonamide] stands under 0.1 µM; under `[2H]C([2H])(c1cnn(C)c1)N1C(=O)c2cc(S(=O)(=O)NC3(C)CC3)ccc2N2C1=NC[C@H]2C#Cc1cnc(C)nc1` [Example 275, (R)-4-((1-methyl-1H-pyrazol-4-yl)methyl-d2)-N-(1-methylcyclopropyl)-1-((2-methylpyrimidin-5-yl)ethynyl)-5-oxo-1,2,4,5-tetrahydroimidazo[1,2-a]quinazoline-7-sulfonamide], under 0.1 µM; under `CN1CCC[C@H]1[C@@H]1CN=C2N(Cc3cnn(C)c3)C(=O)c3cc(S(=O)(=O)NC4(C)CC4)ccc3N21` [Example 276, (S)-4-((1-methyl-1H-pyrazol-4-yl)methyl)-N-(1-methylcyclopropyl)-1-((S)-1-methylpyrrolidin-2-yl)-5-oxo-1,2,4,5-tetrahydroimidazo[1,2-a]quinazoline-7-sulfonamide], under 0.1 µM. Under `Cc1nn(C)cc1C#C[C@@H]1CN=C2N(CC3CC3)C(=O)c3cc(S(=O)(=O)NC4(C)CC4)ccc3N21` [Example 277, (R)-4-(cyclopropylmethyl)-1-((1,3-dimethyl-1H-pyrazol-4-yl)ethynyl)-N-(1-methylcyclopropyl)-5-oxo-1,2,4,5-tetrahydroimidazo[1,2-a]quinazoline-7-sulfonamide] stands under 0.1 µM. As for `C[C@@H]1CN=C2N(CC#Cc3ccc(F)nc3)C(=O)c3cc(S(=O)(=O)NC4(C)CC4)ccc3N21` [Example 278, (R)-4-(3-(6-fluoropyridin-3-yl)prop-2-yn-1-yl)-1-methyl-N-(1-methylcyclopropyl)-5-oxo-1,2,4,5-tetrahydroimidazo[1,2-a]quinazoline-7-sulfonamide], the figure is 0.1 to 1 µM.

As for `CC(=O)N1CCn2ncc(CN3C(=O)c4cc(S(=O)(=O)NC5(C)CC5)ccc4N4C3=NC[C@H]4C)c2C1` [Example 279, (R)-4-((5-acetyl-4,5,6,7-tetrahydropyrazolo[1,5-a]pyrazin-3-yl)methyl)-1-methyl-N-(1-methylcyclopropyl)-5-oxo-1,2,4,5-tetrahydroimidazo[1,2-a]quinazoline-7-sulfonamide], the IC50 was 0.1 to 1 µM. For the compound `[2H]C([2H])(c1cnn(C)c1)N1C(=O)c2cc(S(=O)(=O)NC3(C)CC3)ccc2N2C1=NC[C@H]2C#Cc1ccc(N(C)C)nc1` [Example 280, (R)-1-((6-(dimethylamino)pyridin-3-yl)ethynyl)-4-((1-methyl-1H-pyrazol-4-yl)methyl-d2)-N-(1-methylcyclopropyl)-5-oxo-1,2,4,5-tetrahydroimidazo[1,2-a]quinazoline-7-sulfonamide], the IC50 was under 0.1 µM.

`[2H]C([2H])(c1cnn(C)c1)N1C(=O)c2cc(S(=O)(=O)NC3(C)CC3)ccc2N2C1=NC[C@H]2C#CC1=CCNCC1` [Example 281, (R)-4-((1-methyl-1H-pyrazol-4-yl)methyl-d2)-N-(1-methylcyclopropyl)-5-oxo-1-((1,2,3,6-tetrahydropyridin-4-yl)ethynyl)-1,2,4,5-tetrahydroimidazo[1,2-a]quinazoline-7-sulfonamide] displayed an IC50 of under 0.1 µM.

Source of the values: patent US20260285875A1, “INHIBITORS OF PARG” (858 Therapeutics, Inc., priority 2023, published 2026).
